Blank lines part the entries; values can stand above or below the compound they belong to.
Tested on: 349418-098-R-PDC complex spheroid growth
Assay: Anticancer human tumor 349418-098-R-PDC patient-derived lung adenocarcinoma cell line growth inhibition [AhR]
Conditions: for IC50: curve of first compound; for viability, T/C: stronger effect = lower value
Outline: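 Agents were dosed in half-log steps down from roughly clinical Cmax, or from 10 microM where Cmax was unknown, alone and with AhR antagonists. Read-out: percent test/control growth of tumor spheroids containing HUVEC and MSC stromal cells.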

[1] = second compound 0.1 µM, first compound 0.0316 µM
[2] = second compound 0.1 µM, first compound 0.1 µM
[3] = second compound 0.316 µM, first compound 0.0316 µM
[4] = second compound 0.316 µM, first compound 0.1 µM
[5] = second compound 1 µM, first compound 0.0316 µM
[6] = second compound 1 µM, first compound 0.1 µM
[7] = second compound 3.16 µM, first compound 0.0316 µM
[8] = second compound 3.16 µM, first compound 0.1 µM
[9] = second compound 10 µM, first compound 0.0316 µM
[10] = second compound 10 µM, first compound 0.1 µM
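Note: spheroids exposed to agents for seven days before luminescence viability read.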
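Throughout, for viability, T/C: spheroids also contain HUVEC endothelial cells and human MSC stroma.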

IC50 (second compound 0.1 µM): > 100 nM | IC50 (second compound 0.316 µM): > 100 nM | IC50 (second compound 1 µM): > 100 nM | IC50 (second compound 3.16 µM): < 0.316 nM | IC50 (second compound 10 µM): < 0.316 nM
SMILES: Cn1ncnc1C1c2n[nH]c(=O)c3cc(F)cc(c23)NC1c1ccc(F)cc1 (stereo not given) + Cc1cncc(-c2nc(NCCc3c[nH]c4ccccc34)c3ncn(C(C)C)c3n2)c1
viability, T/C (second compound 0.1 µM, first compound 0.000316 µM): 94.4% | viability, T/C (second compound 0.1 µM, first compound 0.001 µM): 93.9% | viability, T/C (second compound 0.1 µM, first compound 0.00316 µM): 92.2% | viability, T/C (second compound 0.1 µM, first compound 0.01 µM): 87.8% | viability, T/C [1]: 82.5% | viability, T/C [2]: 80.6% | viability, T/C (second compound 0.316 µM, first compound 0.000316 µM): 90.1% | viability, T/C (second compound 0.316 µM, first compound 0.001 µM): 98% | viability, T/C (second compound 0.316 µM, first compound 0.00316 µM): 85.7% | viability, T/C (second compound 0.316 µM, first compound 0.01 µM): 88% | viability, T/C [3]: 85.6% | viability, T/C [4]: 78.5% | viability, T/C (second compound 1 µM, first compound 0.000316 µM): 86.7% | viability, T/C (second compound 1 µM, first compound 0.001 µM): 81.6% | viability, T/C (second compound 1 µM, first compound 0.00316 µM): 89.8% | viability, T/C (second compound 1 µM, first compound 0.01 µM): 78.2% | viability, T/C [5]: 78.8% | viability, T/C [6]: 78.4% | viability, T/C (second compound 3.16 µM, first compound 0.000316 µM): 17.9% | viability, T/C (second compound 3.16 µM, first compound 0.001 µM): 23.4% | viability, T/C (second compound 3.16 µM, first compound 0.00316 µM): 23.8% | viability, T/C (second compound 3.16 µM, first compound 0.01 µM): 19.4% | viability, T/C [7]: 25.5% | viability, T/C [8]: 21.6% | viability, T/C (second compound 10 µM, first compound 0.000316 µM): 2.6% | viability, T/C (second compound 10 µM, first compound 0.001 µM): 2.33% | viability, T/C (second compound 10 µM, first compound 0.00316 µM): 3.01% | viability, T/C (second compound 10 µM, first compound 0.01 µM): 2.42% | viability, T/C [9]: 2.36% | viability, T/C [10]: 2.64%

IC50 (second compound 0.1 µM): 192 nM | IC50 (second compound 0.316 µM): 161 nM | IC50 (second compound 1 µM): 142 nM | IC50 (second compound 3.16 µM): < 31.6 nM | IC50 (second compound 10 µM): < 31.6 nM
SMILES: NS(=O)(=O)OCC1CC(n2ccc3c(NC4CCc5ccccc54)ncnc32)CC1O (stereo not given) + Cc1cncc(-c2nc(NCCc3c[nH]c4ccccc34)c3ncn(C(C)C)c3n2)c1
viability, T/C [1]: 101% | viability, T/C [2]: 69.6% | viability, T/C (second compound 0.1 µM, first compound 0.316 µM): 35.1% | viability, T/C (second compound 0.1 µM, first compound 1 µM): 14.4% | viability, T/C (second compound 0.1 µM, first compound 3.16 µM): 9.84% | viability, T/C (second compound 0.1 µM, first compound 10 µM): 4.65% | viability, T/C [3]: 89.1% | viability, T/C [4]: 71.6% | viability, T/C (second compound 0.316 µM, first compound 0.316 µM): 19% | viability, T/C (second compound 0.316 µM, first compound 1 µM): 12.2% | viability, T/C (second compound 0.316 µM, first compound 3.16 µM): 6.13% | viability, T/C (second compound 0.316 µM, first compound 10 µM): 4.07% | viability, T/C [5]: 86.2% | viability, T/C [6]: 63.3% | viability, T/C (second compound 1 µM, first compound 0.316 µM): 19.2% | viability, T/C (second compound 1 µM, first compound 1 µM): 12.1% | viability, T/C (second compound 1 µM, first compound 3.16 µM): 6.14% | viability, T/C (second compound 1 µM, first compound 10 µM): 4.69% | viability, T/C [7]: 28.4% | viability, T/C [8]: 26.2% | viability, T/C (second compound 3.16 µM, first compound 0.316 µM): 18.7% | viability, T/C (second compound 3.16 µM, first compound 1 µM): 7.99% | viability, T/C (second compound 3.16 µM, first compound 3.16 µM): 3.97% | viability, T/C (second compound 3.16 µM, first compound 10 µM): 3.43% | viability, T/C [9]: 2.2% | viability, T/C [10]: 1.97% | viability, T/C (second compound 10 µM, first compound 0.316 µM): 1.34% | viability, T/C (second compound 10 µM, first compound 1 µM): 0.88% | viability, T/C (second compound 10 µM, first compound 3.16 µM): 1.03% | viability, T/C (second compound 10 µM, first compound 10 µM): 0.56%
